From patent publication US5428038A, “Benzopyranones, a method for producing them and uses therefor” (Dr. Willmar Schwabe GmbH & Co., priority 1991, dated 1995)
Like-named read-outs stand apart in the source and are kept apart here.

How the values were obtained:
[1] = tested on: NMDA-induced tonic convulsions; test: NMDA test (40 mg/kg i.v.), protection against tonic convulsions (antiepileptic efficacy); type: in vivo, male NMRI mice; conditions: Mus musculus, po; for responders at 25 mg/kg: 25 mg/kg p.o. 1 h before test; for responders at 20 mg/kg: 20 mg/kg p.o. 1 h before test
Protocol: (§1) In order to determine the neuroprotective and anticonvulsive activity of the compounds in accordance with the invention of the general formula I, two slightly different methods were employed as follows: […]
(§2) 1. In order to determine the neuroprotective efficacy NMDA at a rate of 25 mg/kg/10 ml was administered intravenously to male NMRI mice with a body weight of 20 to 25 g. As a consequence of this application the animals suffer clonic and partly tonic convulsions, which lead to death. As a criterion for the efficacy of the investigated compounds prevention of death is used.
2. In order to ascertain the antiepileptic efficacy the same method was utilized with an NMDA dosage of 40 mg/kg/10 ml i.v. This higher NMDA dosage led in the case of all animals to the occurrence of tonic convulsions.
(§3) All animals used in the investigations had free access to food and water prior to the experiments. The test and reference substances were all administered as a suspension in 0.2% agar or water, partly by the intermediary of solution promoters such as for instance PEG-400, perorally using an esophageal probe. Control animals received the same volumes of the solvent with optional solution promoters. One hour after the application of the substance NMDA was administered intravenously and the animals observed for the occurrence of convulsions.
In table 2 the results of the tests (NMDA 40 mg i.v.) performed in accordance with method 2 are compiled with dosages of 5-25 mg of the compounds in accordance with the invention per kg of body weight in comparison with known anticonvulsants and antiepileptics. As a percentage efficacy the percentage of animals is used which in the test were protected against the occurrence of tonic convulsions.
(§4) The determination of the ED50 values was performed in accordance with the method described in Lichtfield and Wilcoxon, J. Pharmacol. exp. Therapeut. 96, 99 (1949) in each case with 4 to 5 groups of 10 animals per dosage rate.

NMDA-induced death = test: NMDA test (25 mg/kg i.v.), prevention of NMDA-induced death (neuroprotective efficacy); type: in vivo, male NMRI mice; conditions: Mus musculus, po, NMDA 25 mg/kg i.v.; for ED50: 1 h, dose protecting 50% of animals against NMDA-induced death one hour after application; for responders at 25 mg/kg: 25 mg/kg p.o. 1 h before test; for responders at 50 mg/kg: 50 mg/kg p.o. 1 h before test; for responders at 20 mg/kg: 20 mg/kg p.o. 1 h before test
Protocol: as §1, §2, §3
In table 1 the results of the tests (NMDA 25 mg i.v.) performed in accordance with method 1 are compiled with dosages of 5-100 mg of the compounds in accordance with the invention per kg of body weight as compared with known NMDA-antagonists. As a percentage efficacy the percentage of surviving animals is used.
as §4

[2] = tested on: ovalbumin-induced anaphylactic paw edema; test: Passive rat paw anaphylaxy (inhibition of edema volume; antiallergic and anti-inflammatory); type: in vivo, male Sprague-Dawley rats; conditions: Rattus norvegicus, po; 25 mg/kg p.o. 1 h before test; read-out: Protective action (percentage inhibition of edema volume)
Protocol: The determination of the antiallergic and anti-inflammatory properties of the compounds in accordance with the invention was using a passive rat paw anaphylaxy model.
Male Sprague-Dawley rats were utilized for all tests. The animals were kept under standardized environmental conditions with free access to food and water. For sensitization to the antigen 100 μl of a mouse antiserum to ovalbumin was injected sublplantarly into the left rear paw. […] The opposite paw was for control injected subplantarly only with 100 μl of the solvent (sterile physiological NaCl solution). Overnight the investigated animals were deprived of food but had water ad lib.
Per group in all tests between 6 and 8 animals were used. One hour later the anaphylactic reaction was caused by the intravenous injection of 10 mg/10 ml/kg ovalbumin in physiological NaCl solution. […] The edema volume was calculated from the difference between the values of the two paws. The antiallergic action is in this case expressed as a percentage inhibition of the edema volume of the animals in the test group as compared with control groups undergoing parallel investigation. […] The determination of the ED50 values was performed by linear regression after log transformation of the administered doses, at least three dosage rates being employed.

[3] = NMDA 40 mg/kg i.v., read-out: Protective action (percentage of animals protected against tonic convulsions)
[4] = read-out: Protective action (percentage of surviving animals)
[5] = 5 mg/kg p.o. 1 h before test, NMDA 40 mg/kg i.v., read-out: Protective action (percentage of animals protected against tonic convulsions)
[6] = 1 h, dose protecting 50% of animals against tonic convulsions one hour after application, NMDA 40 mg/kg i.v., read-out: ED50
[7] = 50 mg/kg p.o. 1 h before test, NMDA 40 mg/kg i.v., read-out: Protective action (percentage of animals protected against tonic convulsions)
[8] = 1 h, read-out: Protective action (percentage of animals protected against tonic convulsions)

COc1cc2oc(=O)ccc2cc1OCC(O)CN1CCN(c2ccccc2)CC1 (racemic) [Example 18, (±)-7-methoxy-6-[2-hydroxy-3-(4-phenyl-1-piperazinyl)propoxy]-2H-1-benzopyran-2-one]
responders at 25 mg/kg [1, 3]: 100% | ED50 (NMDA-induced death): 6.4 mg/kg | responders at 25 mg/kg (NMDA-induced death; [4]): 100% | inhibition in vivo at 25 mg/kg [2]: 56%

COc1cc2oc(=O)ccc2cc1OCC(O)CN1CCN(c2cccc(Cl)c2)CC1 (racemic) [Example 19, (±)-6-{3-[4-(3-chlorophenyl)-1-piperazinyl]-2-hydroxypropoxy}-7-methoxy-2H-1-benzopyran-2-one]
responders at 25 mg/kg [1, 3]: 87.5% | ED50 (NMDA-induced death): 8.3 mg/kg | responders at 25 mg/kg (NMDA-induced death; [4]): 100% | inhibition in vivo at 25 mg/kg [2]: 32%

COc1cc2ccc(=O)oc2cc1OCC(O)CN1CCC(c2ccccc2)CC1 (racemic) [Example 23, (±)-7-[2-hydroxy-3-(4-phenyl-1-piperidinyl)-propoxy]-6-methoxy-2H-1-benzopyran-2-one]
responders at 5 mg/kg [1, 5]: 12.5% | ED50 (NMDA-induced death): 28.5 mg/kg | responders at 100 mg/kg (NMDA-induced death; 100 mg/kg p.o. 1 h before test, read-out: Protective action (percentage of surviving animals)): 100%

CCOc1cc2ccc(=O)oc2cc1OCCCN1CCN(c2ccccc2)CC1 [Example 4, 6-ethoxy-7-[3-(4-phenyl-1-piperazinyl)propoxy]-2H-1-benzopyran-2-one]
responders at 5 mg/kg [1, 5]: 62.5% | ED50 (NMDA-induced death): 1.7 mg/kg | responders at 25 mg/kg (NMDA-induced death; [4]): 100% | inhibition in vivo at 25 mg/kg [2]: 79%

COc1cc2oc(=O)ccc2cc1OCCCN1CCN(c2cccc(C(F)(F)F)c2)CC1 [Example 6, 7-methoxy-6-{3-[4-(3-trifluoromethylphenyl)-1-piperazinyl]propoxy}-2H-1-benzopyran-2-one]
responders at 25 mg/kg [1, 3]: 0% | ED50 (NMDA-induced death): 13.5 mg/kg | responders at 25 mg/kg (NMDA-induced death; [4]): 87.5%

COc1cc2ccc(=O)oc2cc1OCCCN1CCC(c2ccccc2)CC1 [Example 10, 6-methoxy-7-[3-(4-phenyl-1-piperidinyl)propoxy]-2H-1-benzopyran-2-one]
responders at 5 mg/kg [1, 5]: 25% | ED50 (NMDA-induced death): 23 mg/kg | responders at 25 mg/kg (NMDA-induced death; [4]): 75% | inhibition in vivo at 25 mg/kg [2]: 22%

COc1cc2oc(=O)c3c(c2cc1OCCCN1CCN(c2ccccc2)CC1)CCCC3 [Example 42, 7,8,9,10-tetrahydro-3-methoxy-2-[3-(4-phenyl-1-piperazinyl)propoxy]-6H-dibenzo[b,d]pyran-6-one]
responders at 25 mg/kg (NMDA-induced death; [4]): 100% | inhibition in vivo at 25 mg/kg [2]: 39%

COc1cc2oc(=O)c3c(c2cc1OCCCN1CCC(c2ccccc2)CC1)CCCC3 [Example 43, 7,8,9,10-tetrahydro-3-methoxy-2-[3-(4-phenyl-1-piperidinyl)propoxy]-6H-dibenzo[b,d]pyran-6-one]
responders at 5 mg/kg [1, 5]: 37.5% | ED50 (NMDA-induced death): 5.5 mg/kg | responders at 25 mg/kg (NMDA-induced death; [4]): 100% | inhibition in vivo at 25 mg/kg [2]: 19%

COc1cc2oc(=O)c3c(c2cc1OCCCN1CCN(c2ccccc2)CC1)CCC3 [Example 45, 2,3-dihydro-7-methoxy-8-[3-(4-phenyl-1-piperazinyl)propoxy]cyclopenta[c][1]benzopyran-4(1H)-one]
ED50 (NMDA-induced death): 1.2 mg/kg | responders at 25 mg/kg (NMDA-induced death; [4]): 100% | inhibition in vivo at 25 mg/kg [2]: 69%

COc1cc2oc(=O)c3c(c2cc1OCCCCN1CCN(c2ccccc2)CC1)CCC3 [Example 46, 2,3-dihydro-7-methoxy-8-[4-(4-phenyl-1-piperazinyl)butyloxy]cyclopenta[c][1]benzopyran-4(1H)-one]
ED50 (NMDA-induced death): 3.9 mg/kg | responders at 25 mg/kg (NMDA-induced death; [4]): 100% | inhibition in vivo at 25 mg/kg [2]: 35%

COc1cc2oc(=O)c3c(c2cc1OCCN1CCC(c2ccccc2)CC1)CCC3 [Example 48, 2,3-dihydro-7-methoxy-8-[2-(4-phenyl-1-piperidinyl)ethoxy]cyclopenta[c][1]benzopyran-4(1H)-one]
ED50 (NMDA-induced death): 4 mg/kg | responders at 5 mg/kg (NMDA-induced death; 5 mg/kg p.o. 1 h before test, read-out: Protective action (percentage of surviving animals)): 100% | inhibition in vivo at 25 mg/kg [2]: 35%

COc1cc2oc(=O)c3c(c2cc1OCCCN1CCC(c2ccccc2)CC1)CCC3 [Example 49, 2,3-dihydro-7-methoxy-8-[3-(4-phenyl-1-piperidinyl)propoxy]cyclopenta[c][1]benzopyran-4(1H)-one]
ED50 [1, 6]: 4 mg/kg | responders at 20 mg/kg [1, 3]: 87.5% | ED50 (NMDA-induced death): 6.8 mg/kg | responders at 25 mg/kg (NMDA-induced death; [4]): 75% | inhibition in vivo at 25 mg/kg [2]: 47%

COc1cc2oc(=O)c3c(c2cc1OCCCN1CCN(c2ccc(F)cc2)CC1)CCC3 [Example 52, 8-{3-[4-(4-fluorophenyl)-1-piperazinyl]propoxy}-2,3-dihydro-7-methoxy-cyclopenta[c][1]benzopyran-4(1H)-one]
ED50 (NMDA-induced death): 1.2 mg/kg | responders at 25 mg/kg (NMDA-induced death; [4]): 100% | inhibition in vivo at 25 mg/kg [2]: 74%

NC(=O)N1c2ccccc2C=Cc2ccccc21 [carbamazepin]
responders at 50 mg/kg [1, 7]: 75%

COc1ccc2c(c1)[C@]13CCCC[C@@H]1[C@H](C2)N(C)CC3 [dextromethorphan, reference compound]
ED50 ([1]; 1 h): 58 mg/kg | responders at 100 mg/kg [1, 8]: 100% | ED50 (NMDA-induced death): 66.7 mg/kg | responders at 50 mg/kg (NMDA-induced death; [4]): 50%

CN1C(=O)CN=C(c2ccccc2)c2cc(Cl)ccc21 [diazepam]
responders at 5 mg/kg [1, 8]: 25%

O=C1NC(=O)C(c2ccccc2)(c2ccccc2)N1 [diphenylhydantoin]
responders at 50 mg/kg [1, 7]: 50%

Fc1ccc(C(c2ccc(F)cc2)N2CCN(C/C=C/c3ccccc3)CC2)cc1 [flunarizin, reference compound]
responders at 50 mg/kg [1, 7]: 100% | ED50 (NMDA-induced death): 22.8 mg/kg | responders at 50 mg/kg (NMDA-induced death; [4]): 100%

COCCOC(=O)C1=C(C)NC(C)=C(C(=O)OC(C)C)C1c1cccc([N+](=O)[O-])c1 (stereo not shown) [nimodipin, reference compound]
ED50 [1, 6]: 25.4 mg/kg | responders at 20 mg/kg [1, 3]: 25% | ED50 (NMDA-induced death): 18.5 mg/kg | responders at 20 mg/kg (NMDA-induced death; [4]): 87.5%

CCC1(c2ccccc2)C(=O)NC(=O)NC1=O [phenobarbital]
responders at 50 mg/kg [1, 8]: 62.5%

CCCC(CCC)C(=O)O [valproinic acid]
responders at 250 mg/kg [1, 8]: 87.5%

COc1ccc(CCN(C)CCCC(C#N)(c2ccc(OC)c(OC)c2)C(C)C)cc1OC (stereo not shown) [verapamil, reference compound]
responders at 50 mg/kg [1, 8]: 50% | ED50 (NMDA-induced death): 17.3 mg/kg | responders at 20 mg/kg (NMDA-induced death; [4]): 87.5%
